Laboratory results reported in ChEMBL document CHEMBL6115046, “Synthesis and In Vitro Profiling of Psilocin Derivatives: Improved Stability and Synthetic Properties” (J Med Chem, 2025).

What was measured:
[1] = Metabolic stability in human liver microsomes assessed as degradation at 1 uM measured upto 45 mins in presence of NADPH measured per mg protein by LC-MS/MS analysis; format: ADME, Microsome; conditions: 0.75 h
[2] = Thermal stability of the compound assessed as parent compound remaining at 60 degreeC measured for 6 days by LC-MS analysis; format: physicochemical; conditions: time 6 day
[3] = Chemical stability of the compound in 1M HCl assessed as half life measured for 24 hrs by LC-MS analysis; format: physicochemical
[4] = Stability of the compound in 0.1M NaOH assessed as half life measured after 24 hrs by LC-MS analysis; format: physicochemical
[5] = Stability of the compound in 1M HCl assessed as parent compound remaining measured for 24 hrs by LC-MS analysis; format: physicochemical; conditions: buffer
[6] = Photolytic stability of the compound assessed as parent compound remaining incubated under 12900 lx light irradiation measured for 14 days by LC-MS analysis; format: physicochemical; conditions: time 14 day
[7] = Stability of the compound in 0.30% H2O2 assessed as half life measured after 24 hrs by LC-MS analysis; format: physicochemical
[8] = Thermal stability of compound assessed as half life at 60 degreeC measured for 6 days by LC-MS analysis; format: physicochemical; conditions: 144 h; time 6 day
[9] = Stability of the compound in 0.1M NaOH assessed as parent compound remaining measured after 24 hrs by LC-MS analysis; format: physicochemical; conditions: read-out: Stability
[10] = Photolytic stability of the compound assessed as half life under 12900 lx light irradiation measured for 14 days by LC-MS analysis; format: physicochemical; conditions: time 14 day
[11] = Stability of the compound in 0.30% H2O2 assessed as parent compound remaining measured after 24 hrs by LC-MS analysis; format: physicochemical; conditions: read-out: Stability

Compound: CN(C)CCc1c[nH]c2cccc(OCc3ccccc3)c12
- Drug degradation [1]: 44 µL/min

Compound: CN(C)CCc1c[nH]c2cccc(OB(O)O)c12.O=C(O)/C=C/C(=O)O
- Drug degradation [1]: > 200 µL/min

Compound: COC(=O)Oc1cccc2[nH]cc(CCN(C)C)c12.O=C(O)/C=C/C(=O)O
- Drug degradation [1]: > 200 µL/min

Compound: CCCCC(=O)Oc1cccc2[nH]cc(CCN(C)C)c12.O=C(O)/C=C/C(=O)O
- Drug degradation [1]: > 200 µL/min

Compound: CCCC(=O)Oc1cccc2[nH]cc(CCN(C)C)c12.O=C(O)/C=C/C(=O)O
- Drug degradation [1]: > 200 µL/min

Compound: CN(C)CCc1c[nH]c2cccc(OS(=O)(=O)O)c12
- Drug degradation [1]: > 200 µL/min

Compound: CC(C)COC(=O)Oc1cccc2[nH]cc(CCN(C)C)c12.O=CO
- Drug degradation [1]: > 200 µL/min

Compound: CN(C)CCc1c[nH]c2cccc(OC(=O)OCc3ccccc3)c12.O=C(O)/C=C/C(=O)O.O=CO
- Drug degradation [1]: > 200 µL/min

Compound: CN(C)CCc1c[nH]c2cccc(OC(=O)N3CCCCC3)c12.O=C(O)/C=C/C(=O)O
- Drug degradation [1]: < 10 µL/min

Compound: CN(C)CCc1c[nH]c2cccc(O)c12.O=C1O[C@H]([C@@H](O)CO)C(O)=C1O
- Stability ([2]; 144 h): 42%
- t1/2 ([3]; buffer, 24 h): > 166.67 h
- t1/2 [4]: 16.67 h
- Stability [5]: 97%
- Stability ([6]; 336 h): 39%
- t1/2 [7]: > 166.67 h
- t1/2 [8]: 150 h

Compound: CN(C)CCc1c[nH]c2cccc(O)c12.OB(O)O
- remaining at 144 h ([2]; read-out: Stability): 0%
- half-life ([3]; 1M HCl): > 167 h
- remaining at 336 h ([6]; read-out: Stability): 0%
- remaining at 24 h [9]: 0%
- half-life [10]: < 16.7 h
- remaining at 24 h [11]: 0%

Compound: CN(C)CCc1c[nH]c2cccc(OP(=O)(O)O)c12 [PSILOCYBIN]
- Drug degradation [1]: < 10 µL/min
